Laboratory results as given in patent US9826732B2, “Composition for cryopreservation of cells and tissues” (Bio Verde Inc., priority 2008, dated 2017).

What was measured:
Assay type in all cases: cell-based
[1] = system: CD34-expressing hematopoietic cells; experiment: Cryopreservation of umbilical cord blood, CD34 flow cytometry; conditions: human cord blood; −80° C. for three months
Protocol: Umbilical cord blood was collected from human umbilical cord by a 7 mL plastic vacuum blood sampling tube (Venoject II, Terumo Corporation) loaded with 10.5 mg anticoagulant (EDTA2Na). […] Then the cord blood was quickly thawed in a water bath at 37° C., and a sample of cord blood without dilution was analyzed with respect to the expression of the surface marker, CD34, by flow cytometry. The number of hematopoietic cells expressing CD34 was measured according to the standard method described in the literature (A. Higuchi et al., J. Biomed. Mater. Res., 68A, the fixed method of 34-42 (2004)). Thus the number of CD34-expressing hematopoietic cells was estimated according to the protocol in the manual (International Hemotherapeutics and Transplantation Society ISHAGE guideline) using Stem-Kit (Beckman-Coulter Corporation). Even after the three months of cryopreservation, number of counted cells of the CD34-expressing hematopoietic cells was estimated to be about 70% of that on the first day when the cord blood was added with the PLL succinic anhydride 63% was added by 7.5%; whereas, when the cord blood in a state of 10% DMSO solution was cryopreserved, number of the CD34-expressing hematopoietic cells was estimated to be about 20% of that on the first day.

[2] = system: Rat mesenchymal stem cells (RMSC); experiment: Cryopreservation of rat mesenchymal stem cells, survival after thawing
L929 cells [3] = experiment: Toxicity test, MTT assay, 50% cell growth inhibition; conditions: 48 hours culture with polymer
Protocol: Toxicity test was performed on L929 cells. The cells having been suspended in a culture medium of DMEM with 10% fetal bovine serum are seeded in 96-well plates (1.0×10^3 cells/well) and cultured at 37° C. for 72 hours. Thereafter, each of ε-poly-L-lysine and the modified poly-lysines having been added with varying concentrations of succinic anhydride was added to the culture media to attain final concentrations of 0-10%.

L929 cells [4] = experiment: Thawed L929 cells seeded directly without dilution or washing, cultured 24 hours; conditions: thawed liquid seeded directly, no dilution nor washing, FIG. 3-1, 3-2
Protocol: Meanwhile, the cryopreservation liquid containing the L929 cells was frozen, thawed and directly seeded in 12-well plates and cultured at 37° C. for 24 hours. In detail, the cells were cryopreserved in the 7.5% solution of the PLL succinic anhydride 63% and thawed as in EXAMPLE 2, except that no dilution nor washing was made for the liquid or the cells, and the liquid containing the cells was directly transferred to the plates for culturing.

C[S+](C)[O-] [DMSO, dimethylsulfoxide]
number of CD34-expressing hematopoietic cells relative to that on the first day [1]: about 20% | survival rate, 6 hours later ([2]; 6 hours after thawing): 88.3 ± 1.1 | survival rate, 24 hours later ([2]; 24 hours after thawing): 92.8 ± 3.5 | survival rate, Immediately ([2]; immediately after thawing): 92.3 ± 4.3 | IC50 (50% Cell-growth-inhibition Concentration) (L929 cells [3]): 2.035 ± 0.017% | observation of cells after 24 hours culture (L929 cells [4]): apparently round in shape and dead
